Test results: patent US20240174641A1, “HETEROCYCLIC COMPOUNDS CAPABLE OF […]” (Boehringer Ingelheim International GmbH, priority 2022, published 2024)

Assays:
STING = STING (Canis lupus familiaris, UniProt A0A8I3MH52); assay: Dog whole blood (dWB) assay, IFNb secretion by ELISA; assay type: cell-based; details: canine Interferon-beta (IFNb) ELISA, 4 h incubation at 37° C.
Description: For the detection of STING activation in physiological environment dog whole blood (dWB) was stimulated by the cyclic dinucleotide cGAMP or a test compound. Pathway activity was monitored by measuring the IFNb production.
Compounds were delivered as 10 mM DMSO solution, diluted and transferred by using an Echo acoustic dispenser to the 384 well assay plate (Greiner #781182), pre-filled with 10 μl 1×HBSS in each well (10×HBSS (+Ca/+Mg), #14065-049, Gibco). Typically, 8 concentrations were used with the highest concentration at 10 μM in the final assay volume followed by approximately 1:4 dilution steps. DMSO concentration was set to 0.1% in the final assay volume. The 384-well assay plate contained 20 test compounds and DMSO in control and cGAMP standard wells. The dog whole blood was collected as Na-Citrate blood (e.g., 3.8% in Monovettes from Sarstedt) and kept at 4° C. overnight until use in the assay. 80 μl of the whole blood samples were transferred to each well of the 384-well assay plates filled with compound/1×HBSS. Blood plates were kept at room temperature for 60 minutes and continuous shaking with 450 rpm, covered with the lid, but not sealed. A 10×cGAMP assay solution was diluted from a 2 mM stock solution in 1×HBSS immediately before use at room temperature. 10 μl of the 10×cGAMP/HBSS were added to the high control wells, whereas HBSS only was added to all compound and low control wells. After covering assay plates with the lid, blood plates were kept for a 4 h incubation at 37° C. in the incubator, without shaking. For the detection of IFNb in dog plasma the ELISA Kit for Canine Interferon Beta (Biotrend #SEA222Ca) was used. Whole blood assay plates were centrifuged at 1000 g for 10 minutes at 8° C. […] was transferred with a 96 well pipetting robotics from the 384 well whole blood plate to the corresponding 96 well ELISA plate, pre-filled with 60 μl assay diluent in each well. Plates were sealed with microplate seals and kept at 4° C. overnight again. ELISA plates were brought to room temperature, followed by a 1 h incubation at 37° C. in the incubator. Detection Reagent A working solution was prepared by diluting Detection Reagent A 1:100 in Assay Reagent A. Liquid was then removed from the 96 well ELISA plate to add 100 μL Detection Reagent A working solution to each well. ELISA plates were covered with the plate sealer and incubated for 1 hour at 37° C. in the incubator. The 1× Wash buffer was prepared by diluting the 30× Wash Buffer Concentrate in H2O. Detection Reagent B working solution was prepared by diluting Detection Reagent B 1:100 in Assay Reagent B. The ELISA plates were washed three times with 350 μl wash buffer and afterwards inverted and blotted against absorbent paper to remove any liquid. 100 μL of Detection Reagent B working solution was added to each well of the ELISA plates, which are then covered with the plate sealer and incubated for 30 minutes at 37° C. in the incubator. After incubation the ELISA assay plates were washed five times with 350 μl wash buffer and were again inverted and blotted against absorbent paper to remove any remaining liquid. 90 μL of TMB Substrate was added to each well of the ELISA plates, which were then covered with the plate sealer and incubated for 15 minutes at 37° C. in the incubator. The reaction was stopped by adding 50 μL stop solution and absorbance was measured at 450 nm immediately.
For data evaluation and calculation, % control calculation of each well was based on the mean of high (cGAMP stimulated control) and mean of low (unstimulated control) controls by using the following standard 4 parameter logistic regression formula:
[y=(a−d)/(1+(x/c)^b)+d] • a=low value, • d=high value, • x=conc M, • c=EC50 M, • b=slope. Dog Liver Microsome (dLM) Assay

dog STING (dSTING) = assay: Dog differential scanning fluorimetry (DSF) assay, thermal shift of dog STING protein; assay type: binding; details: DSF (dDSF); 100 μM compound, 3 μM dog STING protein; Tm with ligand minus Tm of protein alone
Text: The protein used for the biophysical experiments was a recombinant dog STING protein comprising its cytosolic cGAMP binding ectodomain. A codon optimized DNA sequence (for expression in Escherichia coli) encoding amino acid residues 149 to 375 of dog STING was synthesized by GeneArt (Regensburg, Germany) and inserted into a pET17b E. coli expression vector. The protein construct encodes an N-terminal 8×His-tag followed by tobacco etch virus protease (TEV) cleavage site and the above STING gene sequence. The resulting protein sequence for the used dog STING protein (SEQ ID No. 1) is listed below:
For expression of the above recombinant dog STING, the construct was transformed into E. coli BL21 DE3 strain and grown in shake flasks in LB-medium at 15° C. Expression was induced by addition of isopropyl β-D-1-thiogalactopyranoside to a final concentration of 1 mM and cultures shaken overnight. Cell pellets were centrifuged and stored at −70° C. until further use. Protein was purified by cell thawing in lysis buffer (20 mM TRIS-HCl, pH 8, 500 mM NaCl, 1 mM DTT, 0.5 mg/ml lysozyme, Complete Protease Inhibitor (Roche) and DNase (Roche)), followed by metal affinity purification using Ni-NTA resins and elution buffer consisting of 20 mM TRIS-HCl, pH 8, 500 mM NaCl, 1 mM DTT, 300 mM imidazole. Cleavage of the His-Tag using TEV-protease took place during dialysis in size exclusion buffer (20 mM TRIS-HCl, pH 8, 100 mM NaCl, 1 mM DTT) over night. To further purify the target protein a reverse Nickel affinity column was used and the flow through was applied to a size exclusion chromatography. The peak fraction was collected and concentrated to 5 mg/mL.
Dye fluorescence is quenched in aqueous environment and increases upon association of the dye with the hydrophobic parts of the unfolding protein. […] The inflection point of the curve represents the “melting” temperature of the protein (Tm) which is calculated numerically using the Boltzmann equation.
The thermal stability of the dog STING protein was measured in assay buffer containing 20 mM Tris, 150 mM NaCl at pH7.5. The assay uses 384-Well qPCR Plates (Catalog #781358, BRAND), Microseal® ‘B’ Adhesive Seals for PCR Plates (Catalog #MSB-1001, BIO-RAD) and was run on a CFX384 Real-Time System (Bio-Rad). A DMSO stock solution of SYPRO orange (SIGMA 55692-500UL) was prepared. Compound stock solutions (10 mM in DMSO) were diluted 1:2 in DMSO to an intermediate compound concentration of 5 mM and then further diluted 1:40 in assay buffer resulting in a compound concentration of 125 μM and 2.5% DMSO. Fluorescent dye stock solution (5000×SYPRO Orange) was then mixed with target protein and buffer to a concentration of 15 μM Protein and 25×SYPRO Orange. 2 μl of this protein-dye-mixture was added to 8 μl compound solution. Final volume was 10 μL. 3-6 well positions were used as negative control (protein with 2% DMSO). The plates were prepared for duplicate measurement and centrifuged for 2 min at 1000 g. In the measurement, 160 cycles of 0.5° C. were used (temperature ramp 15 s/cycle, 15° C. to 95° C.).
Final Assay concentrations for compound characterization were 100 μM compound, 3 μM target protein, 5×SYPRO Orange, and 2% DMSO in 10 μl. All dispensing steps were performed using a HamiltonStar pipetting robot (Hamilton).
Dissociation curves were processed in Bio-Rad CFX Manager. Peak type was set to “negative”. Compound codes for screen were assigned in the plate layout.
Two replicates of TM measurements were averaged, and the standard deviation was calculated. In cases of SD>1.5° C. the measurement was repeated.
The melting point (Tm) obtained for STING protein alone was subtracted from T obtained for protein incubated with ligand to generate ΔTm values.

Chain of STING (A0A8I3MH52 1-374): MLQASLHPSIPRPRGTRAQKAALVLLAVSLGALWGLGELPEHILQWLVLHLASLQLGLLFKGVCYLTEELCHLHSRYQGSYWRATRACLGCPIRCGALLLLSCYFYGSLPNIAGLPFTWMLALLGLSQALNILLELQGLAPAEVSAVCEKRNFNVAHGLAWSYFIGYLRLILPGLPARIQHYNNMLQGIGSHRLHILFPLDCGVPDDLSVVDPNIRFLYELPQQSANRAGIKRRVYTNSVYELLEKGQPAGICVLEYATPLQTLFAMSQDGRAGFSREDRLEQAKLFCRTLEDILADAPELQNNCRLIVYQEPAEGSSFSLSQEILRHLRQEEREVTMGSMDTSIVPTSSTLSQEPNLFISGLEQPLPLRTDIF

| Compound | EC50 (STING) [nM] | Delta TM (dog STING (dSTING)) [°C] |
| --- | --- | --- |
| Cc1cccc2c(-c3ccc(F)c4nn(C)cc34)nn(-c3ccc(N4CCC(C(=O)O)CC4)nc3)c12 [Example 4, 1-(5-{7″-Fluoro-2″,7-dimethyl-1H,2″H-[3,4″-biindazol]-1-yl}pyridin-2-yl)piperidine-4-carboxylic acid] | 757 | 31.0 |
| Cc1cccc2c(-c3c(F)ccc4nn(C)cc34)nn(-c3ccc(N4C[C@@H]5[C@H](C4)[C@H]5C(=O)O)nc3)c12 [Example 5, (1R,5S,6S)-3-(5-{5″-Fluoro-2″,7-dimethyl-1H,2″H-[3,4″-biindazol]-1-yl}pyridin-2-yl)-3-azabicyclo[3.1.0]hexane-6-carboxylic acid] | 282 | 36.5 |
| Cc1cccc2c(-c3c(F)ccc4nn(C)cc34)nn(-c3ccc(N4CCC(C(=O)O)CC4)nc3)c12 [Example 6, 1-(5-{5″-Fluoro-2″,7-dimethyl-1H,2″H-[3,4″-biindazol]-1-yl}pyridin-2-yl)piperidine-4-carboxylic acid] | 243 | 35.5 |
| Cc1cccc2c(-c3c(F)cc(F)c4nn(C)cc34)nn(-c3ccc(N4C[C@@H]5[C@H](C4)[C@H]5C(=O)O)nc3)c12 [Example 7, (1R,5S,6S)-3-(5-{5″,7″-Difluoro-2″,7-dimethyl-1H,2″H-[3,4″-biindazol]-1-yl}pyridin-2-yl)-3-zabicyclo[3.1.0]hexane-6-carboxylic acid] | 250 | 35.5 |
| CC(=O)N1CCN(c2ccc(-n3nc(-c4cccc5nn(C)c(F)c45)c4cccc(C)c43)cn2)CC1 [Example 8, 1-[4-(5-{3″-Fluoro-2″,7-dimethyl-1H,2″H-[3,4″-biindazol]-1-yl}pyridin-2-yl)piperazin-1-yl]ethan-1-one] | 168 | 32.5 |
| Cc1cccc2c(-c3cccc4nn(C)c(F)c34)nn(-c3ccc(N4CCN(C=O)CC4)nc3)c12 [Example 9, 4-(5-{3″-Fluoro-2″,7-dimethyl-1H,2″H-[3,4″-biindazol]-1-yl}pyridin-2-yl)piperazine-1-carbaldehyde] | 192 | 28.5 |
| Cc1cc(F)cc2c(-c3cccc4nn(C)c(F)c34)nn(-c3ccc(N4C[C@@H]5[C@H](C4)[C@H]5C(=O)O)nc3)c12 [Example 10, (1R,5S,6R)-3-(5-{3′,5-Difluoro-2′,7-dimethyl-1H,2′H-[3,4′-biindazol]-1-yl}pyridin-2-yl)-3-azabicyclo[3.1.0]hexane-6-carboxylic acid] | 350 | 33.1 |
| Cc1c(F)ccc2c(-c3cccc4nn(C)c(F)c34)nn(-c3ccc(N4C[C@@H]5[C@H](C4)[C@H]5C(=O)O)nc3)c12 [Example 11, (1R,5S,6R)-3-(5-{3″,6-Difluoro-2″,7-dimethyl-1H,2″H-[3,4″-biindazol]-1-yl}pyridin-2-yl)-3-azabicyclo[3.1.0]hexane-6-carboxylic acid] | 458 | 34.8 |
| Cc1cc(F)cc2c(-c3ccc(F)c4nn(C)cc34)nn(-c3ccc(N4C[C@@H]5[C@H](C4)[C@H]5C(=O)O)nc3)c12 [Example 12, (1R,5S,6R)-3-(5-{5,7″-Difluoro-2″,7-dimethyl-1H,2″H-[3,4″-biindazol]-1-yl}pyridin-2-yl)-3-azabicyclo[3.1.0]hexane-6-carboxylic acid] | 609 | 21.7 |
| Cc1cccc2c(-c3ccc(F)c4nn(C)c(F)c34)nn(-c3ccc(N4C[C@@H]5[C@H](C4)[C@H]5C(=O)O)nc3)c12 [Example 13, (1R,5S,6R)-3-(5-{3″,7″-Difluoro-2″,7-dimethyl-1H,2″H-[3,4″-biindazol]-1-yl}pyridin-2-yl)-3-azabicyclo[3.1.0]hexane-6-carboxylic acid] | 174 | 33.3 |
| Cc1cc(F)cc2c(-c3c(F)ccc4nn(C)cc34)nn(-c3ccc(N4C[C@@H]5[C@H](C4)[C@H]5C(=O)O)nc3)c12 [Example 14, (1R,5S,6R)-3-(5-{5,5″-Difluoro-2″,7-dimethyl-1H,2″H-[3,4″-biindazol]-1-yl}pyridin-2-yl)-3-azabicyclo[3.1.0]hexane-6-carboxylic acid] | 391 | 38.0 |
| Cc1cc(F)cc2c(-c3c(F)cc(F)c4nn(C)cc34)nn(-c3ccc(N4C[C@@H]5[C@H](C4)[C@H]5C(=O)O)nc3)c12 [Example 15, (1R,5S,6R)-3-(5-{5,5″,7″-Trifluoro-2″,7-dimethyl-1H,2″H-[3,4″-biindazol]-1-yl}pyridin-2-yl)-3-azabicyclo[3.1.0]hexane-6-carboxylic acid] | 1170 | 36.8 |
| Cc1cccc2c(-c3cccc4nn(C)c(F)c34)nn(-c3ccc(N4CC[C@@H](CC(=O)O)C4)nc3)c12 [Example 16, 2-[(3S)-1-(5-{3″-fluoro-2″,7-dimethyl-1H,2″H-[3,4″-biindazol]-1-yl}pyridin-2-yl)pyrrolidin-3-yl]acetic acid] | 267 | 34.0 |
